Laboratory results taken from ChEMBL document CHEMBL6103584, “Hit to lead optimization of the 4-trifluoromethylquinoline derivatives as novel SGK1 inhibitors with potent anti-prostate cancer activity” (Eur J Med Chem, 2025).
Activity calls are given as the source filed them. The calls are words filed in the database; no cut-off is given here.

What was measured:
[1] = Toxicity in BALB/c nude mouse xenografted with human PC-3 cells assessed as tumor metastasis at 0.5 to 2 mg/kg, ip measured for 14 days by H and E staining based analysis; type: organism-based; settings: in vivo, 336 h, dose 0.5-2 mg/kg, time 14 day
[2] = molecular target: T1, Serine/threonine-protein kinase Sgk1 (Homo sapiens) (UniProt O00141); assay: Inhibition of SGK1 in human PC-3 cells assessed as decrease in GSK3-beta phosphorylation at Ser9 at 0.5 uM by Western blot analysis; type: cell-based; settings: time <= 48.0 hrs
T1 sequence (whole entry): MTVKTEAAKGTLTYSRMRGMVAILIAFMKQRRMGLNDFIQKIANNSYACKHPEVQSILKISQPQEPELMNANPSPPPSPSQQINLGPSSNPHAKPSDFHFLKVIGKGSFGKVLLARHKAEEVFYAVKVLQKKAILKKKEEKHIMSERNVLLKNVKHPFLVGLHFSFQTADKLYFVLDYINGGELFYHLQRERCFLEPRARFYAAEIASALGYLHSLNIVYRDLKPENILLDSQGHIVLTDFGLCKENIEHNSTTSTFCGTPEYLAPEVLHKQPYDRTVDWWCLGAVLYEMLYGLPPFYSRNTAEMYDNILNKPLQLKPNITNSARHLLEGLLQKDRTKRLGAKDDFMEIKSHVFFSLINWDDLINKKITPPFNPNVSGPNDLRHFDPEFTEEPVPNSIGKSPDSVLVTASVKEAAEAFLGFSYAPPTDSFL

[3] = system: PC-3; assay: Anti-tumor activity against human PC-3 cells xenografted in BALB/c nude mouse assessed as uniform cell distribution at 0.5 to 2 mg/kg, ip measured for 14 days by H and E staining based analysis; type: functional, organism-based; settings: dose 0.5-2 mg/kg, time 14.0 day
[4] = system: PC-3; assay: Anti-tumor activity against human PC-3 cells xenografted in BALB/c nude mouse assessed as condensed nuclei at 0.5 to 2 mg/kg, ip measured for 14 days by H and E staining based analysis; type: functional, organism-based; settings: dose 0.5-2 mg/kg, time 14.0 day
[5] = molecular target: T1, Serine/threonine-protein kinase Sgk1 (Homo sapiens); assay: Inhibition of SGK1 in human PC-3 cells assessed as decrease in NEDD4-2 phosphorylation at Ser342 incubated for 48 hrs by Western blot analysis; type: cell-based; settings: dose 0.05-2 µM
[6] = Toxicity in BALB/c nude mouse xenografted with human PC-3 cells assessed as change in heart weight at 0.5 to 2 mg/kg, ip measured for 14 days by H and E staining based analysis; type: organism-based; settings: in vivo, 336 h, dose 0.5-2 mg/kg, time 14 day
[7] = Toxicity in BALB/c nude mouse xenografted with human PC-3 cells assessed as thinning of alveolar epithelial cells in lung tissue at 0.5 to 2 mg/kg, ip measured for 14 days by H and E staining based analysis; type: organism-based; settings: in vivo, 336 h, dose 0.5-2 mg/kg, time 14 day
[8] = Toxicity in BALB/c nude mouse xenografted with human PC-3 cells assessed as cell nuclear fragmentation in heart tissue at 0.5 to 2 mg/kg, ip measured for 14 days by H and E staining based analysis; type: organism-based; settings: in vivo, 336 h, dose 0.5-2 mg/kg, time 14 day
[9] = system: PC-3; assay: Anti-tumor activity against human PC-3 cells xenografted in BALB/c nude mouse at 0.5 to 2 mg/kg, ip measured for 14 days; type: functional, organism-based; settings: dose 0.5-2 mg/kg, time 14.0 day
[10] = Toxicity in BALB/c nude mouse xenografted with human PC-3 cells assessed as nuclear fragmentation in kidney tissue at 0.5 to 2 mg/kg, ip measured for 14 days by H and E staining based analysis; type: organism-based; settings: in vivo, 336 h, dose 0.5-2 mg/kg, time 14 day
[11] = Toxicity in BALB/c nude mouse xenografted with human PC-3 cells assessed as change in body weight at 0.5 to 2 mg/kg, ip measured for 14 days; type: organism-based; settings: in vivo, 336 h, dose 0.5-2 mg/kg, time 14 day
[12] = Toxicity in BALB/c nude mouse xenografted with human PC-3 cells assessed as ballooning degeneration in liver tissue at 0.5 to 2 mg/kg, ip measured for 14 days by H and E staining based analysis; type: organism-based; settings: in vivo, 336 h, dose 0.5-2 mg/kg, time 14 day
[13] = molecular target: T1, Serine/threonine-protein kinase Sgk1 (Homo sapiens); assay: Inhibition of SGK1 phosphorylation at Ser78 in human PC-3 cells incubated for 48 hrs by Western blot analysis; type: cell-based; settings: dose 0.05-2 µM
[14] = Toxicity in BALB/c nude mouse xenografted with human PC-3 cells assessed as interstitial vascular congestion in lung tissue at 0.5 to 2 mg/kg, ip measured for 14 days by H and E staining based analysis; type: organism-based; settings: in vivo, 336 h, dose 0.5-2 mg/kg, time 14 day
[15] = molecular target: T1, Serine/threonine-protein kinase Sgk1 (Homo sapiens); assay: Inhibition of SGK1 in human PC-3 cells assessed as decrease in NDRG1 phosphorylation at Thr346 incubated for 48 hrs by Western blot analysis; type: cell-based; settings: dose 0.05-2 µM
[16] = molecular target: T1, Serine/threonine-protein kinase Sgk1 (Homo sapiens); assay: Inhibition of N-terminal GST-tagged truncated human SGK1 (61 to 431 residues) extracted from Sf21 cells at 1 uM preincubated for 10 mins followed by substrate/ATP addition measured after 50 mins by fluorescence based analysis relative to control; type: cell-free; settings: time 60.0 min
[17] = Toxicity in BALB/c nude mouse xenografted with human PC-3 cells assessed as swelling of alveolar epithelial cells in lung tissue at 0.5 to 2 mg/kg, ip measured for 14 days by H and E staining based analysis; type: organism-based; settings: in vivo, 336 h, dose 0.5-2 mg/kg, time 14 day
[18] = Toxicity in BALB/c nude mouse xenografted with human PC-3 cells assessed as toxic effect on liver at 0.5 to 2 mg/kg, ip measured for 14 days by H and E staining based analysis; type: organism-based; settings: in vivo, 336 h, dose 0.5-2 mg/kg, time 14 day
[19] = molecular target: T1, Serine/threonine-protein kinase Sgk1 (Homo sapiens); assay: Inhibition of SGK1 phosphorylation at Ser78 in human PC-3 cells at 0.5 uM by Western blot analysis; type: cell-based; settings: time <= 48.0 hrs
[20] = system: PC-3; assay: Inhibition of cell migration in human PC-3 cells at 0.5 to 1 uM measured after 24 hrs by wound healing assay; type: functional, cell-based; settings: dose 0.5-1 µM
[21] = Toxicity in BALB/c nude mouse xenografted with human PC-3 cells assessed as cell necrosis in liver tissue at 0.5 to 2 mg/kg, ip measured for 14 days by H and E staining based analysis; type: organism-based; settings: in vivo, 336 h, dose 0.5-2 mg/kg, time 14 day
[22] = Toxicity in BALB/c nude mouse xenografted with human PC-3 cells assessed as change in liver weight at 0.5 to 2 mg/kg, ip measured for 14 days by H and E staining based analysis; type: organism-based; settings: in vivo, 336 h, dose 0.5-2 mg/kg, time 14 day
[23] = Toxicity in BALB/c nude mouse xenografted with human PC-3 cells assessed as intact cell nuclei in liver tissue at 0.5 to 2 mg/kg, ip measured for 14 days by H and E staining based analysis; type: organism-based; settings: in vivo, 336 h, dose 0.5-2 mg/kg, time 14 day
[24] = Toxicity in BALB/c nude mouse xenografted with human PC-3 cells assessed as cell necrosis in kidney tissue at 0.5 to 2 mg/kg, ip measured for 14 days by H and E staining based analysis; type: organism-based; settings: in vivo, 336 h, dose 0.5-2 mg/kg, time 14 day
[25] = system: PC-3; assay: Inhibition of cell migration in human PC-3 cells measured after 48 hrs by wound healing assay; type: functional, cell-based; settings: dose 0.1-1 µM
[26] = system: Mus musculus; assay: In vivo inhibition of SGK1 in human PC-3 cells xenografted in BALB/c nude mouse at 0.5 to 2 mg/kg, ip measured for 14 days by Western blot analysis; type: functional, organism-based; settings: dose 0.5-2 mg/kg, time 14.0 day
[27] = Toxicity in BALB/c nude mouse xenografted with human PC-3 cells assessed as change in spleen weight at 0.5 to 2 mg/kg, ip measured for 14 days by H and E staining based analysis; type: organism-based; settings: in vivo, 336 h, dose 0.5-2 mg/kg, time 14 day
[28] = Toxicity in BALB/c nude mouse xenografted with human PC-3 cells assessed as rupture of alveolar epithelial cells in lung tissue at 0.5 to 2 mg/kg, ip measured for 14 days by H and E staining based analysis; type: organism-based; settings: in vivo, 336 h, dose 0.5-2 mg/kg, time 14 day
[29] = molecular target: T1, Serine/threonine-protein kinase Sgk1 (Homo sapiens); assay: Inhibition of SGK1 in human PC-3 cells assessed as decrease in MDM2 phosphorylation at Ser166 at 0.5 uM by Western blot analysis; type: cell-based; settings: time <= 48.0 hrs

## COc1ccc(NC(=O)c2cc3c(C(F)(F)F)cc(Nc4ccc(N5CCNCC5)cc4OC)nc3cc2OC)cc1
[1]
  Activity: Non-toxic
[2]
  inhibition: Time-dependent-effect
[3]
  Activity: Active
[4]
  Activity: Active
[5]
  inhibition: Dose-dependent-effect
[6]
  Activity: Non-toxic
[7]
  Activity: Non-toxic
[8]
  Activity: Non-toxic
[9]
  Activity: Active
[10]
  Activity: Non-toxic
[11]
  Activity: Non-toxic
[12]
  Activity: Non-toxic
[13]
  inhibition: Dose-dependent-effect
[14]
  Activity: Non-toxic
[15]
  inhibition: Dose-dependent-effect
[16]
  inhibition: 76%
[17]
  Activity: Non-toxic
[18]
  Activity: Non-toxic
[19]
  inhibition: Time-dependent-effect
[20]
  inhibition: Active
[21]
  Activity: Non-toxic
[22]
  Activity: Non-toxic
[23]
  Activity: Non-toxic
[24]
  Activity: Non-toxic
[25]
  inhibition: Dose-dependent-effect
[26]
  inhibition: Active
[27]
  Activity: Non-toxic
[28]
  Activity: Non-toxic
[29]
  inhibition: Time-dependent-effect
